Patent US4968713A, “Certain imidazole compounds as transglutaminase inhibitors” (Merck & Co., Inc., priority 1989, dated 1990)
Where a name gives a salt, the structure may show the parent alone. Values belong to the molecule of their own block, whether it stands above or below them.

Target: T1, Factor XIIIa (Homo sapiens, UniProt P00488)
T1 construct: from tissue; host or cells: human plasma
T1 sequence (P00488 39-732 limits assumed): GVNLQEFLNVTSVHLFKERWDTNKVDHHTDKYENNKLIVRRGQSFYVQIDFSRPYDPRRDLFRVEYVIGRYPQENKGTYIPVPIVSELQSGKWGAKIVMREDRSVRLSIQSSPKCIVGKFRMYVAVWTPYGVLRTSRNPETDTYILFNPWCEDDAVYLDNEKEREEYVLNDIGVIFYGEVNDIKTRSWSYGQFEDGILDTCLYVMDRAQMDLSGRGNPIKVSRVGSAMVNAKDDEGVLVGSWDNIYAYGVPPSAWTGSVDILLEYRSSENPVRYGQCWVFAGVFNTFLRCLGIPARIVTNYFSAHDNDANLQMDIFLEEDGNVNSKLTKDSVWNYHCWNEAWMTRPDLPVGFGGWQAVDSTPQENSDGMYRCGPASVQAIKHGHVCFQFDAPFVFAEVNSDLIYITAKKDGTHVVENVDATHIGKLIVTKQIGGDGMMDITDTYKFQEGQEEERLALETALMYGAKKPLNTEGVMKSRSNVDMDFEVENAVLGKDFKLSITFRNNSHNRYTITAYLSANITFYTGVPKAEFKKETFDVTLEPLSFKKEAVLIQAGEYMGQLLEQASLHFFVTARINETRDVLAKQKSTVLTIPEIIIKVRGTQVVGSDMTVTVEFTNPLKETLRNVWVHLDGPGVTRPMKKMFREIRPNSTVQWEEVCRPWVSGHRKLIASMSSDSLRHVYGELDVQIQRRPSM
Experiment: Factor XIIIa inhibitor assay (incorporation of 14C-putrescine into casein)
Format: biochemical
Conditions: for inhibition at 0.1 µM: @ 100 nM
Protocol: The Factor XIIIa inhibitor assay is based on the incorporation of ^14 C-putrescine into casein catalyzed by Factor XIIIa. The assay is carried out employing the procedure described in Methods in Enzymology, Vol. 45, Ch 15., pages 177-191 (1976) and using Factor XIII (F XIII) isolated from human plasma. The procedure is summarized briefly and schematically illustrated as follows: [drawing 9] Factor XIII assay mixtures are prepared by adding stepwise, appropriately prepared solutions of thrombin and dithiothreitol (DTT) to a mixture comprising Factor XIII at 140 μg/mL in glycerol/water and tris(hydroxymethyl)aminomethane hydrochloride (Tris.HCl). To a portion of the mixture is added calcium chloride as source of calcium ions required for enzyme activity and to the remaining mixture is added, instead of calcium ions, ethylenediaminetetraacetic acid (EDTA) which serves as a blank for background. A substrate mixture is prepared from ^14 C-putrescine and N,N-dimethylcasein. The assay tubes and control tubes are charged with the substrate mixture and incubated at 37° C. for 20 minutes. Samples are withdrawn from each tube, spotted onto a filter disk which is then immersed in ice cold trichloroacetic acid solution to precipitate the casein on the filter. The filter is then washed to remove unincorporated or free ^14 C-putrescine and after drying is counted for ^14 C-putrescine incorporated to casein from which percent activity and/or inhibition can be calculated.

[1] = read-out: Percent inhibition (Molar concn)

inhibition at 4 µM (@ 4 μM, read-out: Percent inhibition (Molar concn)): 46%
Structure (SMILES): CCCc1nc(SCC(C)=O)n(C)c1C [H, CH3, CH3, C3 H7, --, HCl]

inhibition at 3.7 µM (@ 3.7 μM, read-out: Percent inhibition (Molar concn)): 76%
Structure (SMILES): CC(=O)CSc1nc(C)c(C)n1C [H, CH3, CH3, CH3, --, HCl, 1,4,5-Trimethyl-2[(2-oxopropyl)thio]imidazole]

inhibition at 0.08 µM (@ 80 nM, read-out: Percent inhibition (Molar concn)): 95%
Structure (SMILES): CC(=O)CSc1n(C)c(C)c(C)[n+]1C [H, CH3, CH3, CH3, CH3, CF3 SO3^-, 1,3,4,5-tetramethyl-2[(2-oxopropyl)thio]imidazolium trifluoromethylsulfonate]

inhibition at 2 µM (@ 2 μM, read-out: Percent inhibition (Molar concn)): 47%
Structure (SMILES): CC(=O)CSc1ncc(C)n1C [H, CH3, CH3, H, --, HCl, 1,5-Dimethyl-2[(2-oxopropyl)thio]imidazole]

The remaining lines, values behind:

Structure (SMILES): CCC(=O)CSc1n(C)c(C)c(C)[n+]1C [CH3, CH3, CH3, CH3, CH3, CF3 SO3^-]
inhibition at 0.1 µM [1]: 93%

Structure (SMILES): CCCc1c(CCC)[n+](C)c(SCC(C)=O)n1C [H, CH3, C3 H7, C3 H7, CH3, CF3 SO3^-, 1,3-Dimethyl-4,5-di(n-propyl)-2-[(2-oxopropyl)thio]imidazolium trifluoromethylsulfonate]
inhibition at 0.1 µM [1]: 86%

Structure (SMILES): CC(=O)CSc1n(C)c(C)c(C)[n+]1C.[Cl-] [H, CH3, CH3, CH3, CH3, Cl^-, 1,3,4,5-Tetramethyl-2[(2-oxopropyl)thio]imidazolium chloride]
Percent inhibition (Molar concn) (@ 80 nM): 95%

Structure (SMILES): CC(=O)CSc1n(C)c(C)c[n+]1C [H, CH3, CH3, H, CH3, CF3 SO3^-, 1,3,5-Trimethyl-2[(2-oxopropyl)thio]imidazolium trifluoromethylsulfonate]
inhibition at 0.1 µM [1]: 90%

Structure (SMILES): CC(=O)CSc1nccn1C [H, CH3, H, H, --, --]
inhibition at 0.15 µM (@ 0.15 μM, read-out: Percent inhibition (Molar concn)): 40%

Structure (SMILES): CC(=O)CSc1n(C)cc[n+]1C [H, CH3, H, H, CH3, Cl^-]
inhibition at 0.313 µM (@ 313 nM, read-out: Percent inhibition (Molar concn)): 67%

Structure (SMILES): CC(=O)CSc1n(C)cc[n+]1C [H, CH3, H, H, CH3, I^-]
inhibition at 0.11 µM (@ 110 nM, read-out: Percent inhibition (Molar concn)): 44%

Structure (SMILES): CC(=O)CSc1n(C)c(C(C)C)c(C(C)C)[n+]1C [H, CH3, iPr, iPr, CH3, CF3 SO3^-]
inhibition at 1 µM (@ 1.0 μM, read-out: Percent inhibition (Molar concn)): 44%
